Reference: patent US20260232767A1, “INTERLEUKIN-23 RECEPTOR ANTAGONIST PEPTIDES FOR USE IN THE TREATMENT OF PSORIASIS” (Janssen Pharmaceutica NV, priority 2023, published 2026)

System: subjects with moderate-to-severe plaque psoriasis
Assay: IGA score, Example 2
Type: in vivo, human
Excerpt: Described below is a multicenter, long-term extension (LTE), double-blind, dose-ranging, parallel group interventional study in participants from Example 1 to evaluate the long-term efficacy and safety of the hydrochloride salt of the compound of Formula (I) for the treatment of moderate-to-severe plaque psoriasis. Patients from Example 1 continued to receive the same dose of the compound of Formula (I) for an additional 36-week treatment period with a 4-week safety follow up period after the last administration of the compound of Formula (I). Patients randomized to placebo in Example 1 received the compound of Formula (I) at a dose of 100 mg QD starting at Week 16 of Example 1 (FIG. 21).
Secondary endpoints included additional change from baseline of Example 1 in PASI, IGA, and PSSD at Week 52, including the proportions of subjects that achieved PAST 90, PAST 100, an IGA score of cleared (0) or minimal (1), PSSD symptoms score=0, and PSSD signs score=0.

[1] = Week 20, Placebo → 100 mg QD, N=35
[2] = Week 24, Placebo → 100 mg QD, N=35
[3] = Week 28, Placebo → 100 mg QD, N=35
[4] = Week 32, Placebo → 100 mg QD, N=35
[5] = Week 40, Placebo → 100 mg QD, N=35
[6] = Week 52, Placebo → 100 mg QD, N=35

## CC(=O)NCCCC[C@@H]1NC(=O)[C@H](Cc2c[nH]c3c(C)cccc23)NC(=O)[C@H]([C@@H](C)O)NC(=O)[C@H](CC(N)=O)NC(=O)[C@@H](NC(C)=O)C(C)(C)SSC(C)(C)[C@@H](C(=O)N[C@@H](Cc2ccc(OCCN)cc2)C(=O)N[C@@H](Cc2ccc3ccccc3c2)C(=O)NC2(C(=O)N[C@@H](CCC(=O)O)C(=O)N[C@@H](CC(N)=O)C(=O)N[C@@H](Cc3cccnc3)C(=O)N(C)CC(N)=O)CCOCC2)NC1=O [IL-23 receptor antagonist peptide, Ac-[Pen]*-N-T-[W(7-Me)]-[Lys(Ac)]-[Pen]*-Phe[4-(2-aminoethoxy)]-[2-Nal]-[THP]-E-N-[3-Pal]-Sarc-NH2 (*[Pen]-[Pen]* formdisulfidebond)]
Week 20, 100 mg QD, N=43
  IGA Score ≤2 (‘Mild’or better), subjects (%): (72.1%)
[1]
  IGA Score = 0 (‘Cleared’) or 1 (‘Minimal’), subjects (%): (28.6%)
  IGA Score = 0 (‘Cleared’), subjects (%): (5.7%)
  IGA Score ≤2 (‘Mild’or better), subjects (%): (71.4%)
Week 24, 25 mg BID, N=41
  IGA Score = 0 (‘Cleared’) or 1 (‘Minimal’), subjects (%): (39.0%)
  IGA Score = 0 (‘Cleared’), subjects (%): (19.5%)
  IGA Score ≤2 (‘Mild’or better), subjects (%): (75.6%)
Week 24, 25 mg QD, N=43
  IGA Score = 0 (‘Cleared’) or 1 (‘Minimal’), subjects (%): (37.2%)
  IGA Score = 0 (‘Cleared’), subjects (%): (16.3%)
  IGA Score ≤2 (‘Mild’or better), subjects (%): (67.4%)
Week 24, 50 mg QD, N=43
  IGA Score = 0 (‘Cleared’) or 1 (‘Minimal’), subjects (%): (60.5%)
  IGA Score = 0 (‘Cleared’), subjects (%): (32.6%)
  IGA Score ≤2 (‘Mild’or better), subjects (%): (81.4%)
Week 24, 100 mg BID, N=42
  IGA Score = 0 (‘Cleared’) or 1 (‘Minimal’), subjects (%): (73.8%)
  IGA Score = 0 (‘Cleared’), subjects (%): (38.1%)
  IGA Score ≤2 (‘Mild’or better), subjects (%): (78.6%)
Week 24, 100 mg QD, N=43
  IGA Score = 0 (‘Cleared’) or 1 (‘Minimal’), subjects (%): (65.1%)
  IGA Score = 0 (‘Cleared’), subjects (%): (23.3%)
  IGA Score ≤2 (‘Mild’or better), subjects (%): (76.7%)
[2]
  IGA Score = 0 (‘Cleared’) or 1 (‘Minimal’), subjects (%): (54.3%)
  IGA Score = 0 (‘Cleared’), subjects (%): (14.3%)
  IGA Score ≤2 (‘Mild’or better), subjects (%): (85.7%)
Week 28, 25 mg BID, N=41
  IGA Score = 0 (‘Cleared’) or 1 (‘Minimal’), subjects (%): (41.5%)
  IGA Score = 0 (‘Cleared’), subjects (%): (19.5%)
  IGA Score ≤2 (‘Mild’or better), subjects (%): (73.2%)
Week 28, 25 mg QD, N=43
  IGA Score = 0 (‘Cleared’) or 1 (‘Minimal’), subjects (%): (37.2%)
  IGA Score = 0 (‘Cleared’), subjects (%): (18.6%)
  IGA Score ≤2 (‘Mild’or better), subjects (%): (65.1%)
Week 28, 50 mg QD, N=43
  IGA Score = 0 (‘Cleared’) or 1 (‘Minimal’), subjects (%): (62.8%)
  IGA Score = 0 (‘Cleared’), subjects (%): (16.3%)
  IGA Score ≤2 (‘Mild’or better), subjects (%): (76.7%)
Week 28, 100 mg BID, N=42
  IGA Score = 0 (‘Cleared’) or 1 (‘Minimal’), subjects (%): (64.3%)
  IGA Score = 0 (‘Cleared’), subjects (%): (42.9%)
  IGA Score ≤2 (‘Mild’or better), subjects (%): (78.6%)
Week 28, 100 mg QD, N=43
  IGA Score = 0 (‘Cleared’) or 1 (‘Minimal’), subjects (%): (62.8%)
  IGA Score = 0 (‘Cleared’), subjects (%): (25.6%)
  IGA Score ≤2 (‘Mild’or better), subjects (%): (74.4%)
[3]
  IGA Score = 0 (‘Cleared’) or 1 (‘Minimal’), subjects (%): (60.0%)
  IGA Score = 0 (‘Cleared’), subjects (%): (17.1%)
  IGA Score ≤2 (‘Mild’or better), subjects (%): (85.7%)
Week 32, 25 mg BID, N=41
  IGA Score = 0 (‘Cleared’) or 1 (‘Minimal’), subjects (%): (46.3%)
  IGA Score = 0 (‘Cleared’), subjects (%): (22.0%)
  IGA Score ≤2 (‘Mild’or better), subjects (%): (73.2%)
Week 32, 25 mg QD, N=43
  IGA Score = 0 (‘Cleared’) or 1 (‘Minimal’), subjects (%): (39.5%)
  IGA Score = 0 (‘Cleared’), subjects (%): (18.6%)
  IGA Score ≤2 (‘Mild’or better), subjects (%): (60.5%)
Week 32, 50 mg QD, N=43
  IGA Score = 0 (‘Cleared’) or 1 (‘Minimal’), subjects (%): (58.1%)
  IGA Score = 0 (‘Cleared’), subjects (%): (30.2%)
  IGA Score ≤2 (‘Mild’or better), subjects (%): (79.1%)
Week 32, 100 mg BID, N=42
  IGA Score = 0 (‘Cleared’) or 1 (‘Minimal’), subjects (%): (66.7%)
  IGA Score = 0 (‘Cleared’), subjects (%): (40.5%)
  IGA Score ≤2 (‘Mild’or better), subjects (%): (78.6%)
Week 32, 100 mg QD, N=43
  IGA Score = 0 (‘Cleared’) or 1 (‘Minimal’), subjects (%): (67.4%)
  IGA Score = 0 (‘Cleared’), subjects (%): (25.6%)
  IGA Score ≤2 (‘Mild’or better), subjects (%): (76.7%)
[4]
  IGA Score = 0 (‘Cleared’) or 1 (‘Minimal’), subjects (%): (65.7%)
  IGA Score = 0 (‘Cleared’), subjects (%): (20.0%)
  IGA Score ≤2 (‘Mild’or better), subjects (%): (80.0%)
Week 40, 25 mg BID, N=41
  IGA Score = 0 (‘Cleared’) or 1 (‘Minimal’), subjects (%): (31.7%)
  IGA Score = 0 (‘Cleared’), subjects (%): (17.1%)
  IGA Score ≤2 (‘Mild’or better), subjects (%): (68.3%)
Week 40, 25 mg QD, N=43
  IGA Score = 0 (‘Cleared’) or 1 (‘Minimal’), subjects (%): (41.9%)
  IGA Score = 0 (‘Cleared’), subjects (%): (11.6%)
  IGA Score ≤2 (‘Mild’or better), subjects (%): (67.4%)
Week 40, 50 mg QD, N=43
  IGA Score = 0 (‘Cleared’) or 1 (‘Minimal’), subjects (%): (58.1%)
  IGA Score = 0 (‘Cleared’), subjects (%): (23.3%)
  IGA Score ≤2 (‘Mild’or better), subjects (%): (79.1%)
Week 40, 100 mg BID, N=42
  IGA Score = 0 (‘Cleared’) or 1 (‘Minimal’), subjects (%): (66.7%)
  IGA Score = 0 (‘Cleared’), subjects (%): (40.5%)
  IGA Score ≤2 (‘Mild’or better), subjects (%): (78.6%)
Week 40, 100 mg QD, N=43
  IGA Score = 0 (‘Cleared’) or 1 (‘Minimal’), subjects (%): (65.1%)
  IGA Score = 0 (‘Cleared’), subjects (%): (27.9%)
  IGA Score ≤2 (‘Mild’or better), subjects (%): (69.8%)
[5]
  IGA Score = 0 (‘Cleared’) or 1 (‘Minimal’), subjects (%): (57.1%)
  IGA Score = 0 (‘Cleared’), subjects (%): (31.4%)
  IGA Score ≤2 (‘Mild’or better), subjects (%): (74.3%)
Week 52, 25 mg BID, N=41
  IGA Score = 0 (‘Cleared’) or 1 (‘Minimal’), subjects (%): (46.3%)
  IGA Score = 0 (‘Cleared’), subjects (%): (19.5%)
  IGA Score ≤2 (‘Mild’or better), subjects (%): (63.4%)
Week 52, 25 mg QD, N=43
  IGA Score = 0 (‘Cleared’) or 1 (‘Minimal’), subjects (%): (37.2%)
  IGA Score = 0 (‘Cleared’), subjects (%): (14.0%)
  IGA Score ≤2 (‘Mild’or better), subjects (%): (55.8%)
Week 52, 50 mg QD, N=43
  IGA Score = 0 (‘Cleared’) or 1 (‘Minimal’), subjects (%): (60.5%)
  IGA Score = 0 (‘Cleared’), subjects (%): (23.3%)
  IGA Score ≤2 (‘Mild’or better), subjects (%): (79.1%)
Week 52, 100 mg BID, N=42
  IGA Score = 0 (‘Cleared’) or 1 (‘Minimal’), subjects (%): (73.8%)
  IGA Score = 0 (‘Cleared’), subjects (%): (42.9%)
  IGA Score ≤2 (‘Mild’or better), subjects (%): (76.2%)
Week 52, 100 mg QD, N=43
  IGA Score = 0 (‘Cleared’) or 1 (‘Minimal’), subjects (%): (60.5%)
  IGA Score = 0 (‘Cleared’), subjects (%): (30.2%)
  IGA Score ≤2 (‘Mild’or better), subjects (%): (67.4%)
[6]
  IGA Score = 0 (‘Cleared’) or 1 (‘Minimal’), subjects (%): (65.7%)
  IGA Score = 0 (‘Cleared’), subjects (%): (31.4%)
  IGA Score ≤2 (‘Mild’or better), subjects (%): (77.1%)
